We go through one compound from patent US10166225B2, “Method for treating osteoporosis” (Exelixis, Inc., priority 2011, dated 2019).

The subject of series [1] is human bone marrow-derived CD34+ osteoclast precursor cells. The experiment in a line: Osteoclast differentiation assay (secreted TRACP 5b at day 7). The format is cell-based. As for the experimental part:
The study was performed in four parts. In the first part, human bone marrow-derived CD34+ osteoclast precursor cells were cultured on bovine bone slices for 7 days, after which the formed osteoclasts were quantitated by measuring tartrate-resistant acid phosphatase 5b activity (TRACP 5b) in the culture medium.
The objective of this study was to investigate the effects of Compound 1 selected by the Sponsor on differentiation and activity of human osteoclasts and mouse osteoblasts in vitro. The effects on osteoclasts were studied using a model where bone marrow-derived human osteoclast precursor cells are cultured on bovine bone slices for 7 days in conditions favouring osteoclast differentiation, and allowed to differentiate into bone-resorbing osteoclasts. After completion of osteoclast differentiation at day 7, the culture medium was removed and new culture medium favouring osteoclast activity was added into the wells. The mature osteoclasts were then cultured for an additional 3 days, allowing them to resorb bone. In the osteoclast differentiation assay, the test compounds and a reference inhibitor osteoprotegerin (OPG) were added into cultures at day 0. In the osteoclast activity assay, the test compounds and a reference inhibitor E64 were added into cultures at day 7. Seven concentrations in 8 replicates were tested in both assays. Tartrate-resistant acid phosphatase 5b activity (TRACP 5b) was measured from the culture medium collected at day 7 as an index of the number of osteoclasts formed in each well during the differentiation period. C-terminal cross-linked telopeptides of type I collagen (CTX) was measured from the culture medium collected at day 10 to quantitate bone resorption during days 7-10.
A human osteoclast culture system was developed for use in this study where CD34+ osteoclast precursor cells derived from human bone marrow (Poietics® Human Osteoclast Precursors, Lonza, Walkersville, USA) are cultured on bovine bone slices in the presence of appropriate growth factors, including M-CSF and RANK-ligand (Rissanen et al. 2009). The cells are first allowed to differentiate into mature bone-resorbing osteoclasts, and the formed osteoclasts are then allowed to resorb bone. The test and reference compounds are added into the cell cultures at the beginning of the differentiation and/or the resorption period, and their effects on the differentiation and/or resorbing activity of osteoclasts are determined.
Secreted TRACP 5b is determined from the culture medium after the differentiation period using a commercially available method (BoneTRAPÒ, IDS Ltd, Boldon, UK). Secreted TRACP 5b describes accurately the number of osteoclasts formed in each well during the differentiation period. CTX is determined from the culture medium after the resorption period using a commercially available method (CrossLapsÒ for cultures, IDS Ltd, Boldon, UK). CTX describes accurately the amount of bone collagen degradation products released into the culture medium in each well during the resorption period.
In this study, human bone marrow-derived CD34+ stem cells (10000 cells/well) were suspended in culture medium and allowed to attach to bovine bone slices in 96-well tissue culture plates. The culture medium (containing 10% FBS, OCP BulletKit® Lonza, Walkersville, USA) was supplemented with appropriate amounts of important growth factors favoring osteoclast differentiation and activity, including M-CSF (33 ng/ml, OCP BulletKit® Lonza, Walkersville, USA) and RANK-ligand (66 ng/ml, OCP BulletKit® Lonza, Walkersville, USA) in 200 μl of medium. The cells were incubated in a CO2 incubator in humidified atmosphere of 95% air and 5% carbon dioxide at 37° C. for 7 days. The test compounds and reference compound OPG were added at day 0. Supernatants collected at day 7 were stored at −70° C. until analysis of TRACP 5b. TRACP 5b was measured from the culture medium (20 μl/sample) using VICTOR2™ Multilabel Counter (PerkinElmer, Waltham, Mass., USA). […]

For series [2], the system named is KS483 mouse osteoprogenitor cells. The experiment in a line: Osteoblast differentiation assay (cellular ALP activity at day 8). The series is classed as cell-based. The procedure:
In the third part, KS483 mouse osteoprogenitor cells were cultured for 8 days, after which the formed mature osteoblasts were quantitated by measuring the amount of intracellular alkaline phosphatase (ALP) activity. […] The effects on osteoblasts were studied using KS483 mouse osteoprogenitor cells that can be induced to differentiate into bone-forming osteoblasts. […] In the osteoblast differentiation assay, the cells were cultured for 8 days, after which the formed mature osteoblasts were quantitated by measuring the amount of intracellular alkaline phosphatase (ALP) activity. […] A culture system was established that can be used as an in vitro model for studying the effects of anabolic and estrogen-like compounds on osteoblast differentiation and activity. In this culture system mouse KS483 cells first proliferate and then differentiate into osteoblasts capable of forming mineralized bone nodules in the presence of ascorbic acid and ß-glycerophosphate (Fagerlund et al. 2009). The test and reference compounds are added into the cell cultures concomitantly with the medium change, and their effects on the differentiation and activity of osteoblasts are determined. Cellular ALP, a marker of osteoblast differentiation, is determined from the cell lysates as described earlier (Lowry et al. 1954). Secreted PINP, a marker of organic bone matrix formation, is determined from the culture medium using a commercially available method (Rat/Mouse PINP EIA, IDS Ltd, Boldon, UK). Calcium deposition, an index of inorganic bone matrix formation, is measured using a commercially available calcium assay (Roche Diagnostics). Mouse KS483 cells were cultured in T-75 tissue culture flasks in aMEM supplemented with 10% charcoal-stripped fetal bovine serum until 80-90% confluence. The cells were incubated in a CO2 incubator in humidified atmosphere of 95% air and 5% carbon dioxide at 37° C. After reaching 80-90% confluence, subcultures were prepared. Cells were removed from the flasks with trypsin treatment and counted. For induction of the maturation of osteoblasts and bone formation, the immature osteoblastic cells were plated in type I collagen-coated 96-well plates. The cells were cultured for 8 days with a supplement of ascorbic acid ([…]), and half of the media was changed every 3-4 days. The test compound and control substance (E2) were added in the beginning of the culture period and when the medium was changed. The cultures were stopped at day 8 by removing the culture media from the wells, and cell lysates were prepared. Cellular ALP activity and total protein content (Protein Assay, Bio-Rad Laboratories Inc, CA, USA) were quantitated by using VICTOR2™ Multilabel Counter (PerkinElmer, Waltham, Mass., USA).

Each structure is given as a SMILES string. Entries after “also recorded” stand apart in the source; their conditions may differ.

As to `COc1cc2nccc(Oc3ccc(NC(=O)C4(C(=O)Nc5ccc(F)cc5)CC4)cc3)c2cc1OC` [Compound 1, N-(4-{[6,7-bis(methyloxy)quinolin-4-yl]oxy}phenyl)-N′-(4-fluorophenyl)cyclopropane-1,1-dicarboxamide], the “number of Hoechst and TRACP positive mononuclear cells (microscopic analysis)” value was “did not affect” in series [1] (0.11 and 0.33 μM); “decreased” in series [1] (1.0 and 3.0 μM, effects at least partly cytotoxic). Also, the activity at 0.004 µM stood at 85% in series [1] (Homo sapiens, Osteoclast, 168 h, 0.004 μM Compound 1, read-out: TRACP 5b Activity at Day 7, Percent Activity (%) Compared to BL) and 109% in series [2] (Mus musculus, Osteoblast, 192 h, 0.004 μM Compound 1, read-out: ALP Activity at Day 8, Percent Activity (%) Compared to BL). Further, the activity at 0.012 µM in series [1] (Homo sapiens, Osteoclast, 168 h, 0.012 μM Compound 1, read-out: TRACP 5b Activity at Day 7, Percent Activity (%) Compared to BL) was determined as 80%; in series [2] (Mus musculus, Osteoblast, 192 h, 0.012 μM Compound 1, read-out: ALP Activity at Day 8, Percent Activity (%) Compared to BL) it was 113%. Besides, the activity at 0.037 µM turned out to be 74% in series [1] (Homo sapiens, Osteoclast, 168 h, 0.037 μM Compound 1, read-out: TRACP 5b Activity at Day 7, Percent Activity (%) Compared to BL) and 134% in series [2] (Mus musculus, Osteoblast, 192 h, 0.037 μM Compound 1, read-out: ALP Activity at Day 8, Percent Activity (%) Compared to BL). Further, the activity at 0.11 µM is 45% in series [1] (Homo sapiens, Osteoclast, 168 h, 0.11 μM Compound 1, read-out: TRACP 5b Activity at Day 7, Percent Activity (%) Compared to BL) and 181% in series [2] (Mus musculus, Osteoblast, 192 h, 0.11 μM Compound 1, read-out: ALP Activity at Day 8, Percent Activity (%) Compared to BL). Besides, the activity at 0.33 µM worked out at 15% in series [1] (Homo sapiens, Osteoclast, 168 h, 0.33 μM Compound 1, read-out: TRACP 5b Activity at Day 7, Percent Activity (%) Compared to BL) and 166% in series [2] (Mus musculus, Osteoblast, 192 h, 0.33 μM Compound 1, read-out: ALP Activity at Day 8, Percent Activity (%) Compared to BL). For the same compound, the activity at 1 µM in series [1] (Homo sapiens, Osteoclast, 168 h, 1.0 μM Compound 1, read-out: TRACP 5b Activity at Day 7, Percent Activity (%) Compared to BL) was found to be 4%; in series [2] (Mus musculus, Osteoblast, 192 h, 1.0 μM Compound 1, read-out: ALP Activity at Day 8, Percent Activity (%) Compared to BL), 117%. Moreover, the activity at 3 µM in series [1] (Homo sapiens, Osteoclast, 168 h, 3.0 μM Compound 1, read-out: TRACP 5b Activity at Day 7, Percent Activity (%) Compared to BL) was 0%; in series [2] (Mus musculus, Osteoblast, 192 h, 3.0 μM Compound 1, read-out: ALP Activity at Day 8, Percent Activity (%) Compared to BL), 57%. Besides, the “effect on osteoclast differentiation” value in series [1] (significant with 0.11, 0.33, 1.0 and 3.0 μM concentrations) is “dose-dependent inhibition”. The “ALP values / osteoblast differentiation” value in series [2] (3.0 μM) is given as “decreased; also recorded: inhibitory effects”; in series [2] (0.012, 0.037, 0.11, 0.33 and 1.0 μM), “increased; also recorded: dose-dependent stimulation”.
